# How the values were obtained:
# [1] = tested on: Telomere G1 (DNA, G4) TAGGGTTAGGGTTAGGGTTAGGG; assay: CD melting at 288 nm; settings: 100 mM KCl, 50 mM Tris-HCl pH 7.4, 4.5 μM compound, 1.5 μM DNA
# [2] = tested on: c-myc (DNA, G4) TGAGGGTGGGGAGGGTGGGGAA; assay: CD melting at 263 nm; settings: 5 mM KCl; 50 mM Tris-HCl pH 7.4; 4.5 μM compound, 1.5 μM DNA
# [3] = tested on: c-myc (DNA, G4) TGAGGGTGGGGAGGGTGGGGAA; assay: ITC; settings: K+ (50 mM KH2PO4-K2HPO4); potassium phosphate buffer pH 7.0, 25 °C, dilute condition without PEG200
# [4] = tested on: Telomere G1 (DNA, G4) TAGGGTTAGGGTTAGGGTTAGGG; assay: ITC; settings: K+ (50 mM KH2PO4-K2HPO4); potassium phosphate buffer pH 7.0, 25 °C, dilute condition without PEG200
Structure (SMILES),"ΔTm ([1]; derived from two Tm (73.5, 65))",ΔTm [2],Ka [3],Ka [4],"ΔTm ([1]; derived from two Tm (70.5, 65))","ΔTm ([1]; derived from two Tm (79, 65))"
CN1CCCNC(=O)CC2(CCCCC2)CC(=O)NCCCN(C)CCCN2C(=O)c3ccc4c5c(ccc(c35)C2=O)C(=O)N(CCC1)C4=O,8.5 °C,> 15 °C,6.2e+06 M⁻¹,1.5e+06 M⁻¹,,
CN1CCCNC(=O)CCCC(=O)NCCCN(C)CCCN2C(=O)c3ccc4c5c(ccc(c35)C2=O)C(=O)N(CCC1)C4=O,,> 15 °C,1.1e+06 M⁻¹,3.4e+06 M⁻¹,5.5 °C,
CN1CCCNC(=O)c2cccc(c2)C(=O)NCCCN(C)CCCN2C(=O)c3ccc4c5c(ccc(c35)C2=O)C(=O)N(CCC1)C4=O,,> 15 °C,2.4e+06 M⁻¹,2.2e+06 M⁻¹,,14 °C

# Reference: PMC7037305 (2020)
